Results published in PMC3500442 (ACS Chemical Biology, 2012).

Target: T1, MJ0408 (MptD, archaeal DHNA) (Methanocaldococcus jannaschii, UniProt Q57851)
T1 sequence (Q57851 1-121): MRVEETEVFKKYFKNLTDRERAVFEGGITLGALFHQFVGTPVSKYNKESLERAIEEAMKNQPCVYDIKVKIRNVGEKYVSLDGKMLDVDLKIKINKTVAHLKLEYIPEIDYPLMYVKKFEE
Assay: HPLC fluorescence after iodine oxidation
Assay type: biochemical
Conditions: 110 uM H2Neo, 8 mM MgCl2, 16 mM DTT, TES/KCl pH 7.4, 70 °C, argon

In the case of Nc1nc2c(c(=O)[nH]1)N=C([C@H](O)[C@H](O)CO)CN2 [H2Neo, 7,8-dihydroneopterin], the “HPLC fluorescence after iodine oxidation” value is reported as “it was found to catalyze the formation of 6-HMD from H2Neo”.
Nc1nc2c(c(=O)[nH]1)N=C(CO)CN2 [6-HMD, 6-hydroxymethyl-7,8-dihydropterin] was tested, and the “HPLC fluorescence after iodine oxidation” value was “it was found to catalyze the formation of 6-HMD from H2Neo”.
